This note sets out measurements from US12501898B2, “Synergistic pesticidal compositions and methods for delivery of active ingredients” (0903608 B.C. Ltd., priority 2017, dated 2025).

For data set [1], the system named is Trichoplusia ni. The data set can be described thus: In-vitro insecticidal efficacy on treated modified McMorran artificial diet (Colby synergy). Conditions: Pylon […]. Type of data set: in vivo, Trichoplusia ni (cabbage looper). As for the experimental part: A stock solution was prepared for each of trans-2-hexenoic acid and trans-3-hexenoic acid (both available from Sigma-Aldrich, St. Louis, MO, USA), by dissolving each exemplary unsaturated aliphatic acid in 100% dimethylsulfoxide (DMSO) at a concentration of 20 mg/mL (20,000 ppm). A stock solution for the potassium salt of (2E,4E)-2,4-hexadienoic acid was prepared by dissolving the salt in water to form a 20 mg/mL (20,000 ppm) solution.
An artificial diet suitable for Trichoplusia ni (cabbage looper caterpillar) was prepared according to the modified McMorran artificial diet recipe known in the entomology field (containing agar, casein, potassium hydroxide, alphacel, Wesson's salt mix, sugar, toasted wheat germ, choline chloride, ascorbic acid, methyl paraben, aureomycin, linseed oil and vitamin solution).
The treated artificial diet was then used to fill each well of a 24-well treatment plate with approximately 0.5 mL of artificial diet, which was allowed to solidify at room temperature and stored overnight at approximately 4 C. […] Each experiment contained 3 replicates, and was repeated at least 3 times.
(§1) While for SF<1, antagonism is present and for SF=1, the efficacy of the compounds is merely additive.

Data set [2] deals with Sclerotinia sclerotiorum. The data set can be described thus: Synergistic Growth Inhibition Assay (MIC / FIC index) against Sclerotinia sclerotiorum. The class given is cell-based. Conditions: for MIC (B): individual compound alone, incubation 7 days. As for the experimental part: (§2) In some embodiments, the synergistic action between the pesticidal active ingredient, and the C6-C10 unsaturated aliphatic acid components of the pesticidal compositions according to embodiments of the present disclosure was tested using a Synergistic Growth Inhibition Assay, which is derived from and related to a checkerboard assay as is known in the art for testing of combinations of antimicrobial agents. In the Synergistic Growth Inhibition Assay used in accordance with some embodiments of the present disclosure, multiple dilutions of combinations of pesticidal active ingredient and C6-C10 (or alternatively C11 or C12) unsaturated aliphatic acid agents are tested in individual cells for inhibitory activity against a target pest or pathogenic organism. In one such embodiment, the combinations of pesticidal active ingredient and C6-C10 unsaturated aliphatic acid agents may preferably be tested in decreasing concentrations. In a further such embodiment, the combinations of pesticidal active ingredient and C6-C10 (or alternatively C11 or C12) unsaturated aliphatic acid agents may be tested in increasing concentrations. These multiple combinations of the pesticidal active ingredient and C6-C10 (or alternatively C11 or C12) unsaturated aliphatic acid agents may be prepared in 96-well microtiter plates. In one such embodiment, the Synergistic Growth Inhibition Assay then comprises rows which each contain progressively decreasing concentrations of the pesticidal active ingredient and C6-C10 (or alternatively C11 or C12) unsaturated aliphatic acid agents to test for the MIC of the agents in combination at which growth of the target pest or pathogen is inhibited. Thus, each well of the microtiter plate is a unique combination of the two agents, at which inhibitory efficacy of the combination against the target pest or pathogen can be determined.
(§3) In one embodiment according to the present disclosure, for each row of microtiter cells in the Synergistic Growth Inhibition Assay, the FIC index is calculated from the lowest concentration of the pesticidal active ingredient and C6-C10 unsaturated aliphatic acid agents necessary to inhibit growth of a target pest or pathogen. The FIC of each component is derived by dividing the concentration of the agent present in that well of the microtiter plate by the minimal inhibitory concentration (MIC) needed of that agent alone to inhibit growth of the target pest or pathogen. The FIC index is then the sum of these values for both agents in that well of the microtiter plate. […] Fractional inhibitory concentration indices may then used as measure of synergy. […] When the FIC index is equal to 1, the combination is additive.
(§4) In some embodiments of the present disclosure, the exemplary Synergistic Growth Inhibition Assay was conducted starting with an initial composition comprising a pesticidal active ingredient agent at its individual MIC and a C6-C10 (or alternatively C11 or C12) unsaturated aliphatic acid agent at its individual MIC in the first well of a row on a 96 well microtiter plate. Then, serial dilutions of these initial compositions in successive wells in the row of the microtiter plate were used to assay the pesticidal composition under the same conditions to determine the concentration of the composition combining the two agents corresponding to the microtiter well in which growth inhibition of the target pest or organism ceases.
A culture of the representative fungal pathogen, namely Fusarium oxysporum or Botrytis cinerea, for example, is grown to exponential phase in potato dextrose broth (PDB).

In data set [3] the test system is Fusarium oxysporum. The data set is described as follows: Synergistic Growth Inhibition Assay (MIC / FIC index, resazurin) against Fusarium oxysporum. Type of data set: cell-based. Conditions: for MIC (B): Compound B (unsaturated aliphatic acid) alone, Fusarium oxysporum. As for the experimental part:
as §2, §3, §4
In some embodiments, Fusarium oxysporum was used as a representative pest organism or pathogen to determine synergy in pesticidal compositions comprising a pesticidal active ingredient agent and a C6-C10 (or alternatively C11 or C12) unsaturated aliphatic acid agent. Resazurin dye (also known as Alamar blue dye) was used as an indicator to determine the presence of growth or inhibition of growth of Fusarium oxysporum in the wells of the 96 well microtiter plates used in the exemplary Synergistic Growth Inhibition Assay.

Data set [4] deals with Trichoplusia ni. The data set is described as follows: In-planta insecticidal efficacy on sprayed green cabbage plants (Colby synergy). The class given is in vivo, Trichoplusia ni (cabbage looper). To be noted: […] Pylon, 0.06 mg/mL acid (salt). As for the experimental part:
A stock solution for the potassium salt of (2E,4E)-2,4-hexadienoic acid was prepared by dissolving the salt in water to form a 20 mg/mL (20,000 ppm) solution.
Each experiment was repeated at least 3 times.
as §1

The test system of data set [5] is Botrytis cinerea. The data set can be described thus: Synergistic Growth Inhibition Assay (MIC / FIC index, resazurin) against Botrytis cinerea. Type of data set: cell-based. As for the experimental part:
as §2
as §3, with “additive. […]” for “additive.”

Data set [6] can be described thus: Solubility / effective solubilized concentration in 10% DMSO/90% PDB by HPLC. As for the experimental part: This solution was diluted 10-fold in potato dextrose broth (PDB) to give a concentration of 0.05 mg/mL in 10% DMSO/90% PDB.
This solution was diluted 10-fold in potato dextrose broth (PDB) to give a concentration of 0.1 mg/mL in 10% DMSO/90% PDB.

The mark [7] stands for this setting: individual compound alone, incubation 48 hours.

Converted amounts (≈) assume the structure as drawn. “And” between values parts separate entries of the source, which are not always exact repeats. Equal values may be shown once.

Take `CC/C=C/CC(=O)O` [Trans-3-hexenoic acid, trans-3-hexenoic acid]: in data set [1] (0.05 mg/mL acid (salt)), the “72 hr Obs. Efficacy” value came out at 0%, the “90 hr Obs. Efficacy” value was determined as 0% and the “120 hr Obs. Efficacy” value came to 0%. In data set [1] (0.30 mg/mL acid (salt)), the “72 hr Obs. Efficacy” value is recorded as 4%, the “90 hr Obs. Efficacy” value is listed as 4% and the “120 hr Obs. Efficacy” value is given as 0%. The “MIC (B)” value in data set [2] is 156.2 µg/mL. In data set [3] (48 hours incubation), the “MIC (B)” value came to 156.2 µg/mL and the “MIC of individual compound alone (MIC (A) or MIC (B))” value (from here on “MIC of individual compound alone”) is 312.5 µg/mL. Moreover, in data set [3] (24 hour incubation), the “MIC of individual compound alone” value came out at 312.5 µg/mL.
`C/C=C/C=C/C(=O)O` [(2E,4E)-2,4-hexadienoic acid]: the “MIC of individual compound alone” value in data set [3] (24 hour incubation) worked out at 125 µg/mL.
For the compound `C=CCCCCCC(=O)O` [7-Octenoic acid, 7-octenoic acid], the “MIC (B)” value in data set [3] (48 hours incubation) is 312.5 µg/mL.
Consider `CCCCCCC/C=C/C(=O)O` [Trans-2-decenoic acid, trans-2-decenoic acid], for which the “MIC (B)” value in data set [3] (48 hours incubation) was 156.2 µg/mL; in data set [3] (48 hours incubation, listed as Trans-2-Decenoic acid), 78.12 µg/mL. The “MIC of individual compound alone” value in data set [3] (24 hour incubation) is 36.25 µg/mL.
On to `CCCCCC=CCC(=O)O` [3-Nonenoic acid, 3-nonenoic acid], for which the “MIC (B)” value in data set [2] was 39.06 µg/mL and 78.12 µg/mL and 156.2 µg/mL.
As for `C=CCCCC(=O)O` [5-Hexenoic acid, 5-hexenoic acid], the “MIC (B)” value in data set [2] and in data set [3] (48 hours incubation) was 156.2 µg/mL in each case.
With `CO/C=C(/C(=O)OC)c1ccccc1Oc1cc(Oc2ccccc2C#N)ncn1` [Azoxystrobin, reference compound], the “MIC of individual compound alone” value turned out to be 150 µg/mL in data set [2] (compound alone, 7 days incubation) and 150 µg/mL in data set [3] (48 hours incubation).
Consider `CCC/C=C/C(=O)O` [Trans-2-hexenoic acid, trans-2-hexenoic acid], for which, in data set [1] (0.05 mg/mL acid (salt)), the “72 hr Obs. Efficacy” value worked out at 0%, the “90 hr Obs. Efficacy” value was 0% and the “120 hr Obs. Efficacy” value was 0%. Moreover, in data set [1] (0.30 mg/mL acid (salt)), the “72 hr Obs. Efficacy” value stood at 0%, the “90 hr Obs. Efficacy” value stood at 0% and the “120 hr Obs. Efficacy” value turned out to be 0%. In addition, in data set [4] (after 48 hours), the “Observed Efficacy (%)” value is recorded as 0%. Further, the “Observed Efficacy (%)” value in data set [4] (after 72 hours) came out at 0%. The “MIC (B)” value in data set [2] was found to be 78.12 µg/mL. In data set [3] (24 hour incubation), the “MIC of individual compound alone” value was determined as 312.5 µg/mL.
With `CC=CCCC(=O)O` [4-Hexenoic acid, 4-hexenoic acid], in data set [2] (Sclerotinia sclerotiorum, […], Compound B (unsaturated aliphatic acid) alone, 7 days incubation), the MIC turned out to be 156 µg/mL.
For `N#Cc1c[nH]cc1-c1cccc2c1OC(F)(F)O2` [Fludioxonil, fludioxonil, reference compound], in data set [3] (24 hour incubation), the “MIC of individual compound alone” value is 0.24063 µg/mL.
For the compound `CCCC/C=C/CC(=O)O` [Trans-3-octenoic acid, trans-3-octenoic acid], the “MIC of individual compound alone” value in data set [3] (48 hours incubation) is 156.2 µg/mL.
With `CCCCC=CCC(=O)O` [3-Octenoic acid, 3-octenoic acid], the “MIC of individual compound alone” value in data set [5] (compound alone, 24 hour incubation) amounted to 146.6 µg/mL.
For `C/C=C(/C)C(=O)O[C@H]1C[C@@H](OC(C)=O)[C@@]2(C)CO[C@H]3[C@H]4O[C@@H]5C[C@@H](c6ccoc6)C(C)=C5[C@@]4(C)[C@H](CC(=O)OC)[C@]1(C)[C@@H]32` [Salannin], in data set [5] (Botrytis cinerea, 48 h, individual compound alone, incubation 48 hours), the MIC came out at 50 µg/mL.
With `C=CCCCCCCCC(=O)O` [9-Decenoic acid, 9-decenoic acid], the “MIC (B)” value in data set [2] is 39.06 µg/mL and 78.12 µg/mL; in data set [5] (setting [7]), 78.12 µg/mL. In addition, the “MIC of individual compound alone” value in data set [3] (24 hour incubation) amounted to 71.72 µg/mL; in data set [3] (48 hours incubation) it was 312.5 µg/mL.
For the compound `COC(=O)N(OC)c1ccccc1COc1ccn(-c2ccc(Cl)cc2)n1` [Pyraclostrobin, pyraclostrobin], the “solubility in 10% DMSO/90% PDB” value in data set [6] was 15.4 µg/mL (≈ 39.7 µM).
In the case of `C/C=C/C=C/C(=O)[O-].[K+]` [(2E,4E)-2,4-hexadienoic acid, potassium salt], the “MIC of individual compound alone” value in data set [3] (24 hour incubation) turned out to be 625 µg/mL.
For `CCCCCCC=CCC(=O)O` [3-Decenoic acid, 3-decenoic acid], the “MIC (B)” value in data set [2] was 39.06 µg/mL and 78.12 µg/mL; in data set [5] (setting [7]), 39.06 µg/mL and 78.12 µg/mL. For the same compound, the “MIC of individual compound alone” value in data set [3] (24 hour incubation) is 73.36 µg/mL; in data set [3] (48 hours incubation) it was 312.5 µg/mL and 78.12 µg/mL.
`CCCCCCCC/C=C/C(=O)O` [Trans-2-undecenoic acid, trans-2-undecenoic acid]: the “MIC (B)” value in data set [2] amounted to 78.12 µg/mL.
Regarding `CCCCC/C=C/C(=O)O` [Trans-2-octenoic acid, trans-2-octenoic acid], the “MIC (B)” value in data set [3] (48 hours incubation) stood at 156.2 µg/mL.
On to `CCCC=CCC(=O)O` [3-Heptenoic acid, 3-heptenoic acid], for which the “MIC (B)” value in data set [2] is 78.12 µg/mL. In addition, in data set [3] (48 hours incubation), the “MIC of individual compound alone” value is 156.2 µg/mL.
